Assays:
[1] = molecular target: 5-hydroxytryptamine receptor 2C (Homo sapiens, UniProt P28335); assay: GPCRScan assay: inhibition of 5-HT2C; set-up: radioligand conc. used [nm] 1.0 – 2.5, parental cells HEK T
[2] = molecular target: Cyclin-dependent kinase 2/cyclin A (Homo sapiens) (UniProt P24941+P20248+P78396); assay: cyclin-dependent kinase 2 / clyclinA Millipore kinase panel; format: protein-complex assay; conditions: Compound concentration 10.0 uM
[3] = molecular target: Death-associated protein kinase 2 (Homo sapiens) (UniProt Q9UIK4); assay: death-associated protein kinase 2 Millipore kinase panel; conditions: Compound concentration 10.0 uM
[4] = molecular target: Ephrin type-A receptor 4 (Homo sapiens) (UniProt P54764); assay: EPH receptor A4 Millipore kinase panel; conditions: Compound concentration 10.0 uM
[5] = molecular target: Eukaryotic elongation factor 2 kinase (Homo sapiens) (UniProt O00418); assay: eukaryotic elongation factor-2 kinase Millipore kinase panel; conditions: Compound concentration 10.0 uM
[6] = molecular target: Vascular endothelial growth factor receptor 3 (Homo sapiens) (UniProt P35916); assay: fms-related tyrosine kinase 4 Millipore kinase panel; conditions: Compound concentration 10.0 uM
[7] = molecular target: Serine/threonine-protein kinase haspin (Homo sapiens) (UniProt Q8TF76); assay: germ cell associated 2 (haspin) Millipore kinase panel; conditions: Compound concentration 10.0 uM
[8] = molecular target: Glycogen synthase kinase-3 beta (Homo sapiens) (UniProt P49841); assay: glycogen synthase kinase 3 beta Millipore kinase panel; conditions: Compound concentration 10.0 uM
[9] = molecular target: Homeodomain-interacting protein kinase 2 (Homo sapiens) (UniProt Q9H2X6); assay: homeodomain interacting protein kinase 2 Millipore kinase panel; conditions: Compound concentration 10.0 uM
[10] = molecular target: Insulin receptor (Homo sapiens) (UniProt P06213); assay: insulin receptor (activated) Millipore kinase panel; conditions: Compound concentration 10.0 uM
[11] = molecular target: LIM domain kinase 1 (Homo sapiens) (UniProt P53667); assay: LIM domain kinase 1 Millipore kinase panel; conditions: Compound concentration 10.0 uM
[12] = molecular target: Mitogen-activated protein kinase 10 (Homo sapiens) (UniProt P53779); assay: mitogen-activated protein kinase 10 Millipore kinase panel; conditions: Compound concentration 10.0 uM
[13] = molecular target: Mitogen-activated protein kinase kinase kinase 9 (Homo sapiens) (UniProt P80192); assay: mitogen-activated protein kinase kinase kinase 9 Millipore kinase panel; conditions: Compound concentration 10.0 uM
[14] = molecular target: PI3-kinase p110-delta/p85-alpha (Homo sapiens) (UniProt P27986+O00329); assay: phosphoinositide-3-kinase, catalytic, delta polypeptide Millipore kinase panel; format: protein-complex assay; conditions: Compound concentration 10.0 uM
[15] = molecular target: Phosphatidylinositol 4,5-bisphosphate 3-kinase catalytic subunit gamma isoform (Homo sapiens) (UniProt P48736); assay: phosphoinositide-3-kinase, catalytic, gamma polypeptide Millipore kinase panel; conditions: Compound concentration 10.0 uM
[16] = molecular target: Protein kinase C zeta type (Homo sapiens) (UniProt Q05513); assay: protein kinase C, zeta Millipore kinase panel; conditions: Compound concentration 10.0 uM
[17] = molecular target: Serine/threonine-protein kinase D2 (Homo sapiens) (UniProt Q9BZL6); assay: protein kinase D2 Millipore kinase panel; conditions: Compound concentration 10.0 uM
[18] = molecular target: cGMP-dependent protein kinase 2 (Homo sapiens) (UniProt Q13237); assay: protein kinase, cGMP-dependent, type II Millipore kinase panel; conditions: Compound concentration 10.0 uM
[19] = molecular target: cAMP-dependent protein kinase catalytic subunit PRKX (Homo sapiens) (UniProt P51817); assay: protein kinase, X-linked Millipore kinase panel; conditions: Compound concentration 10.0 uM
[20] = molecular target: Rho-associated protein kinase 2 (Homo sapiens) (UniProt O75116); assay: Rho-associated, coiled-coil containing protein kinase 2 Millipore kinase panel; conditions: Compound concentration 10.0 uM
[21] = molecular target: SRSF protein kinase 3 (Homo sapiens) (UniProt Q9UPE1); assay: SFRS protein kinase 3 Millipore kinase panel; conditions: Compound concentration 10.0 uM
[22] = molecular target: Serine/threonine-protein kinase TBK1 (Homo sapiens) (UniProt Q9UHD2); assay: TANK-binding kinase 1 Millipore kinase panel; conditions: Compound concentration 10.0 uM
[23] = molecular target: Testis-specific serine/threonine-protein kinase 1 (Homo sapiens) (UniProt Q9BXA7); assay: testis-specific serine kinase 1B Millipore kinase panel; conditions: Compound concentration 10.0 uM
[24] = molecular target: Toll-like receptor 4 (Homo sapiens) (UniProt O00206); assay: Toll like receptor 4 Millipore kinase panel; conditions: Compound concentration 10.0 uM
[25] = molecular target: RAC-alpha serine/threonine-protein kinase (Homo sapiens) (UniProt P31749); assay: v-akt murine thymoma viral oncogene homolog 1 Millipore kinase panel; conditions: Compound concentration 10.0 uM
[26] = molecular target: RAC-gamma serine/threonine-protein kinase (Homo sapiens) (UniProt Q9Y243); assay: v-akt murine thymoma viral oncogene homolog 3 Millipore kinase panel; conditions: Compound concentration 10.0 uM
[27] = molecular target: Serine/threonine-protein kinase VRK2 (Homo sapiens) (UniProt Q86Y07); assay: vaccinia related kinase 2 Millipore kinase panel; conditions: Compound concentration 10.0 uM
[28] = molecular target: T1, cGMP-inhibited 3',5'-cyclic phosphodiesterase 3A (Homo sapiens, UniProt Q14432); assay: hPDE3A PDE scan
[29] = molecular target: Rod cGMP-specific 3',5'-cyclic phosphodiesterase subunit alpha (Homo sapiens, UniProt P16499); assay: hPDE6AB PDE scan
[30] = molecular target: 5-hydroxytryptamine receptor 2A (Homo sapiens) (UniProt P28223); assay: h5HT2A Cerep panel; conditions: Compound concentration 10.0 uM
Rattus norvegicus [31] = species: Rattus norvegicus; assay: rCa channel Cerep panel; conditions: Compound concentration 10.0 uM
[32] = molecular target: Adenosine receptor A2a (Homo sapiens) (UniProt P29274); assay: hA2A Cerep panel; conditions: Compound concentration 10.0 uM
[33] = molecular target: Adenosine receptor A3 (Homo sapiens) (UniProt P0DMS8); assay: hA3 Cerep panel; conditions: Compound concentration 10.0 uM
[34] = molecular target: Alpha-1A adrenergic receptor (Rattus norvegicus) (UniProt P43140); assay: rAa1 Cerep panel; conditions: Compound concentration 10.0 uM
[35] = molecular target: T2, Alpha-1B adrenergic receptor (Homo sapiens) (UniProt P35368); assay: hAb1 Cerep panel; conditions: Compound concentration 10.0 uM
T2 sequence (whole entry): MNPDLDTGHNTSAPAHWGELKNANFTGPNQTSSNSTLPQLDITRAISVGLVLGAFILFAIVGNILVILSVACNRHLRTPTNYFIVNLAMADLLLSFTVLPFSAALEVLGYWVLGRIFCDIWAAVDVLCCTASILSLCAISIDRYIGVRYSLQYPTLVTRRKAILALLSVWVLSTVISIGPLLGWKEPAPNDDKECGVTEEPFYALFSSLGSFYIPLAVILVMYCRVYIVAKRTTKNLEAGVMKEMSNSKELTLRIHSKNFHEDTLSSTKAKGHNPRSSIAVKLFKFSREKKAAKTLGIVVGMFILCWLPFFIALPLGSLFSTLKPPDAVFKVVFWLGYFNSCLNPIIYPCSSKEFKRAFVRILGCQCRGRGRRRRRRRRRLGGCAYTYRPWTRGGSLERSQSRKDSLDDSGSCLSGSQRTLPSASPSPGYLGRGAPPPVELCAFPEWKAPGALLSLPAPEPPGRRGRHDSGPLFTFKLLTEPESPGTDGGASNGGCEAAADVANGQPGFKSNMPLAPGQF

[36] = molecular target: B2 bradykinin receptor (Homo sapiens) (UniProt P30411); assay: hBK2 Cerep panel; conditions: Compound concentration 10.0 uM
[37] = molecular target: Gastrin/cholecystokinin type B receptor (Homo sapiens) (UniProt P32239); assay: hCCK2 Cerep panel; conditions: Compound concentration 10.0 uM
Rattus norvegicus [38] = species: Rattus norvegicus; assay: rGABA Cerep panel; conditions: Compound concentration 10.0 uM
[39] = molecular target: 5-hydroxytryptamine receptor 7 (Homo sapiens, UniProt P34969); assay: h5HT7 Cerep panel; conditions: Compound concentration 10.0 uM
Rattus norvegicus [40] = species: Rattus norvegicus; assay: rK_ATP potassium channel Cerep panel; conditions: Compound concentration 10.0 uM
[41] = molecular target: Glucocorticoid receptor (Homo sapiens) (UniProt P04150); assay: hGR Cerep panel; conditions: Compound concentration 10.0 uM
[42] = molecular target: Histamine H2 receptor (Homo sapiens) (UniProt P25021); assay: hH2 Cerep panel; conditions: Compound concentration 10.0 uM
[43] = molecular target: Progesterone receptor (Homo sapiens) (UniProt P06401); assay: hPR Cerep panel; conditions: Compound concentration 10.0 uM
[44] = molecular target: T1, cGMP-inhibited 3',5'-cyclic phosphodiesterase 3A; assay: hPDE3A Cerep panel; conditions: Compound concentration 10.0 uM
[45] = molecular target: cAMP and cAMP-inhibited cGMP 3',5'-cyclic phosphodiesterase 10A (Mus musculus) (UniProt Q8CA95)

T1 sequence (Q14432 whole entry): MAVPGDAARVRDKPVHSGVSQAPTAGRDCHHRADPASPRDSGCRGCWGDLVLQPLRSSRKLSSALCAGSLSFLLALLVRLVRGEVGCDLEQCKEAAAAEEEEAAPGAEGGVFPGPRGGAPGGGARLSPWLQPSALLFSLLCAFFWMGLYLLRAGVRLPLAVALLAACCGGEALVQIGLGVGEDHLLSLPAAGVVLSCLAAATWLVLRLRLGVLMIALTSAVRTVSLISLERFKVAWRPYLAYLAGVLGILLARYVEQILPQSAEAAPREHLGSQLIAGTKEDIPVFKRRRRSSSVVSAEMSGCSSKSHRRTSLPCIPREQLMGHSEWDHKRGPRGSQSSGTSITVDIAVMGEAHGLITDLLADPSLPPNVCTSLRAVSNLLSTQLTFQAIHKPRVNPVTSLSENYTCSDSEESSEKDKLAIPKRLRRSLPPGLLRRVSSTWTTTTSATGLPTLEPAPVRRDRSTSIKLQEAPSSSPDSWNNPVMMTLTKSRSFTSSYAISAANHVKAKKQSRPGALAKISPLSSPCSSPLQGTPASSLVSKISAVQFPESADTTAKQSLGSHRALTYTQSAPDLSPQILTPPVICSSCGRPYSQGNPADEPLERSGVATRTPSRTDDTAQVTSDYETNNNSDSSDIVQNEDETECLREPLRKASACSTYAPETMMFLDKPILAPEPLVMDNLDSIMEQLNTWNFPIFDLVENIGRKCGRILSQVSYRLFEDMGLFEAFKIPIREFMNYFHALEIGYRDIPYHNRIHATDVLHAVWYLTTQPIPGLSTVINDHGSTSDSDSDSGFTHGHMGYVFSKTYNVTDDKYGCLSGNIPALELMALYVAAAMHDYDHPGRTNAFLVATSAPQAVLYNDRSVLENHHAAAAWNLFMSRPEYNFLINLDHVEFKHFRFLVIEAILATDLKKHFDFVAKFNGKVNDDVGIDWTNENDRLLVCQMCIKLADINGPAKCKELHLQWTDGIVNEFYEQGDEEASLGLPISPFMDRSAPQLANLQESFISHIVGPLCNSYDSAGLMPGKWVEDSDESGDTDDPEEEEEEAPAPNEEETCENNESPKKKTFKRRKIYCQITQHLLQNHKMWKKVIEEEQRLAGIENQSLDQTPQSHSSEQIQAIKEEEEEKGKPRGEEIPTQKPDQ
5-hydroxytryptamine receptor 2A (Homo sapiens), sequence (P28223 whole entry): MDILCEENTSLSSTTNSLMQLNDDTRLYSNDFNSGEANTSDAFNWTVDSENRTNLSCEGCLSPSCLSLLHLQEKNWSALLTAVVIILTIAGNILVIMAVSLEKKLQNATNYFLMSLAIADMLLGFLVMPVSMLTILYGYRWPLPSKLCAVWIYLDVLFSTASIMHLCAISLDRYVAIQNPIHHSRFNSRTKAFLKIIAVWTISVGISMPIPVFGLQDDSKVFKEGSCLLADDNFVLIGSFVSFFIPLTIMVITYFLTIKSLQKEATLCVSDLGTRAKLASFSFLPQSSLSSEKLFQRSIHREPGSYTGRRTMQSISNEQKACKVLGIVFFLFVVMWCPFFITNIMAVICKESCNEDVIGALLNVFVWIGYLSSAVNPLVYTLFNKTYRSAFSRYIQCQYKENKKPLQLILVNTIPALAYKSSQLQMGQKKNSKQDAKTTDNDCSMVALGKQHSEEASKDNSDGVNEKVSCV
Histamine H2 receptor (Homo sapiens), sequence (P25021 whole entry): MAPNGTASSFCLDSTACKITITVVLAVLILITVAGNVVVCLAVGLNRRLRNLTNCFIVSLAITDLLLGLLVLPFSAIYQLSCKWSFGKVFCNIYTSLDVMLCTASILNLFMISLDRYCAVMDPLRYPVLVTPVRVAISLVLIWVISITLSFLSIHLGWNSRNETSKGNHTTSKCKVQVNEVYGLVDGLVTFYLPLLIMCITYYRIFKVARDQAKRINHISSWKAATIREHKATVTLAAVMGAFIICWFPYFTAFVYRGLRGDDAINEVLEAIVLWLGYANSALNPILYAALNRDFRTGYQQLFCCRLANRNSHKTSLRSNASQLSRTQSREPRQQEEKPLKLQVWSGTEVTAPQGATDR
Adenosine receptor A2a (Homo sapiens), sequence (P29274 whole entry): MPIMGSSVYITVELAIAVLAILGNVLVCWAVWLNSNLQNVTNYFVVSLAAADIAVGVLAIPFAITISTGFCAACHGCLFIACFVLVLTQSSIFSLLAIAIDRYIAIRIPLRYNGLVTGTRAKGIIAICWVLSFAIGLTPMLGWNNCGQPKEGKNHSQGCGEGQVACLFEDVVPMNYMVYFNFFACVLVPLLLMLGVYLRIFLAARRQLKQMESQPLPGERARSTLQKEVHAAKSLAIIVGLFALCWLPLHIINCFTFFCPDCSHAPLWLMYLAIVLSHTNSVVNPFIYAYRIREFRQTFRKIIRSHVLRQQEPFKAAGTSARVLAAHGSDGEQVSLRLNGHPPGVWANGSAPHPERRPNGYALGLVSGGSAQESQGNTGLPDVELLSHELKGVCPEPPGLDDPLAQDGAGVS
Homeodomain-interacting protein kinase 2 (Homo sapiens), sequence (Q9H2X6 whole entry, looked up): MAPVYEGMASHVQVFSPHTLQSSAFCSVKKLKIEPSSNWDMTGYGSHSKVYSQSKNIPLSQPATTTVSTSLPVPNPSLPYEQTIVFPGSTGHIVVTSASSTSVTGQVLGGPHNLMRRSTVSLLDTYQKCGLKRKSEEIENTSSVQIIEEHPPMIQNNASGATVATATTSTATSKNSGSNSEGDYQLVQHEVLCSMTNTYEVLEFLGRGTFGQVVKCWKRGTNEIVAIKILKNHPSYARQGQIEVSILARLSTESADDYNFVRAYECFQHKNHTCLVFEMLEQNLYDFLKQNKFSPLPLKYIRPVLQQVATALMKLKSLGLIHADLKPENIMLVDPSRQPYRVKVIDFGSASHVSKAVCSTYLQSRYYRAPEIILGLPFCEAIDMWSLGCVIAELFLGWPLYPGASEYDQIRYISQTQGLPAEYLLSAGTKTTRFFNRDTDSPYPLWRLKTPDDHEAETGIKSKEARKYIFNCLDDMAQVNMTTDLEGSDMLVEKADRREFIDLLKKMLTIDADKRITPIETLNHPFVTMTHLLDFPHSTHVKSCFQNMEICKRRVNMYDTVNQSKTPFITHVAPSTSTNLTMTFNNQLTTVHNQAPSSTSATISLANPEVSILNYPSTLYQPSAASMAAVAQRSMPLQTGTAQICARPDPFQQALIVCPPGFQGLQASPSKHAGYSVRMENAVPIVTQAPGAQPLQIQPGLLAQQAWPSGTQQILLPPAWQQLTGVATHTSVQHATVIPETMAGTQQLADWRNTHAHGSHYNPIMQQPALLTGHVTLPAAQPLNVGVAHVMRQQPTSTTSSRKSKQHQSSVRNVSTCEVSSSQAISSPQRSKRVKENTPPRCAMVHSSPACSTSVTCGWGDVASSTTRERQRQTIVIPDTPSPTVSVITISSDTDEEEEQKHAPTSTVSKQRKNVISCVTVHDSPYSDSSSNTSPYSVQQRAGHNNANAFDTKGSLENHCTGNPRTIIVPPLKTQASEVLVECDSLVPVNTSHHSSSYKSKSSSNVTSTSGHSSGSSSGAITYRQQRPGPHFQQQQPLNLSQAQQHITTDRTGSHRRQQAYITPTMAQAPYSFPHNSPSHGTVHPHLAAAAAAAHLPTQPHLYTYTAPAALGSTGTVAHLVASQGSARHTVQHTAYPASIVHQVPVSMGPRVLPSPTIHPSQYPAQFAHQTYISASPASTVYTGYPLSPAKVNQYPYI
Glycogen synthase kinase-3 beta (Homo sapiens), sequence (P49841 whole entry, looked up): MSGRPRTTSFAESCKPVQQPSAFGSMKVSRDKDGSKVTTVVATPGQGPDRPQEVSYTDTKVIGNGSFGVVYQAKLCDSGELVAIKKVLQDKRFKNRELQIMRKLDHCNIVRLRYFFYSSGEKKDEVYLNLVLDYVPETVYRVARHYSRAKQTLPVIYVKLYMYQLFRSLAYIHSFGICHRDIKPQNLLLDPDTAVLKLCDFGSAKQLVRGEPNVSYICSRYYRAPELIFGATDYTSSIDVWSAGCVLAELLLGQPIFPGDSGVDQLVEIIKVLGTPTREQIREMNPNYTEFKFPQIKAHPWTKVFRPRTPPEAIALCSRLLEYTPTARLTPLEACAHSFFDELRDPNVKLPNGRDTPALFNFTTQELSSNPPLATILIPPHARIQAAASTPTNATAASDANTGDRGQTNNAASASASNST
Progesterone receptor (Homo sapiens), sequence (P06401 whole entry): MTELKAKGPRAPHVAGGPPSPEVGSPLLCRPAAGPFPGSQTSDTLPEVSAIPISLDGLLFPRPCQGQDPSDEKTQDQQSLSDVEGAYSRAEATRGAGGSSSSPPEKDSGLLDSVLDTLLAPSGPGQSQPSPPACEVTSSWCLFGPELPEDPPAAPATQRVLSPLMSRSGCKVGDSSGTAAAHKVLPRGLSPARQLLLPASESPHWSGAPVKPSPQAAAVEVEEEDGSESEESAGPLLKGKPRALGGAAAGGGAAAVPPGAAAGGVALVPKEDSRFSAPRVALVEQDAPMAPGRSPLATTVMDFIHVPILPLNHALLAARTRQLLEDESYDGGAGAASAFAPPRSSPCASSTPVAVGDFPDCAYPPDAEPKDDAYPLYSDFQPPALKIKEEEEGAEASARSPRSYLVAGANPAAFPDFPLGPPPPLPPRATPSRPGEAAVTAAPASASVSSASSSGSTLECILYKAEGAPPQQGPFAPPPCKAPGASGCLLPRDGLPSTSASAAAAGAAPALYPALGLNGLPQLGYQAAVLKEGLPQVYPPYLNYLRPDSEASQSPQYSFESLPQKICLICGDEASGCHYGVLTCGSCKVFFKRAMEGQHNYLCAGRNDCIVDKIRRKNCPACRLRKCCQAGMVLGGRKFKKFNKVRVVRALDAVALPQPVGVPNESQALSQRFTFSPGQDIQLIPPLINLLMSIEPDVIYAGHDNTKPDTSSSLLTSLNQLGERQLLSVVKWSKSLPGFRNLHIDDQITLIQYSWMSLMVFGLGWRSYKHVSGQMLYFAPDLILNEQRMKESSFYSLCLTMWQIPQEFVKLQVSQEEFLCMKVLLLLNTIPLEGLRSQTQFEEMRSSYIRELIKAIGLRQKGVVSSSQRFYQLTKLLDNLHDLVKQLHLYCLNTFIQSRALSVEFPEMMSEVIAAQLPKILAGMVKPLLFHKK

## COCCc1ccc(-c2c(C)nc3c(N4CCOCC4)ccnn23)cn1 [JNJ-42396302]
[1]
  Ki: 2.2 µM
[2]
  inhibition: 2%
[3]
  inhibition: -1%
[4]
  inhibition: 2%
[5]
  inhibition: -2%
[6]
  inhibition: -4%
[7]
  inhibition: 5%
[8]
  inhibition: -1%
[9]
  inhibition: 0%
[10]
  inhibition: -2%
[11]
  inhibition: -3%
[12]
  inhibition: 18%
[13]
  inhibition: 5%
[14]
  inhibition: 1%
[15]
  inhibition: -4%
[16]
  inhibition: 5%
[17]
  inhibition: 2%
[18]
  inhibition: 1%
[19]
  inhibition: 4%
[20]
  inhibition: -3%
[21]
  inhibition: -6%
[22]
  inhibition: -3%
[23]
  inhibition: 2%
[24]
  inhibition: -5.24%
[25]
  inhibition: 35%
[26]
  inhibition: 24%
[27]
  inhibition: -4%
[28]
  Ki: 49 µM
[29]
  Ki: 85 µM
[30]
  effect: 4.05%
Rattus norvegicus [31]
  effect: 4.75%
[32]
  effect: 17.8%
[33]
  effect: 8.4%
[34]
  effect: -2.55%
[35]
  effect: 6.55%
[36]
  effect: 7.1%
[37]
  effect: -5.55%
Rattus norvegicus [38]
  effect: 21.1%
[39]
  effect: 8.6%
Rattus norvegicus [40]
  effect: 2.9%
[41]
  effect: 1.9%
[42]
  effect: 18.1%
[43]
  effect: 13.5%
[44]
  effect: 6%
[45]
  Increase in cAMP: 10 fold

Reference: ChEMBL document CHEMBL4800727 (2021)
